Assay results: patent US20260182575A1, “MOLECULES HAVING PESTICIDAL UTILITY AND INTERMEDIATES AND PROCESSES RELATED THERETO” (CORTEVA AGRISCIENCE LLC, priority 2022, published 2026)

Experiments:
[1] = system: Brown Planthopper (Nilaparvata lugens, NILALU, BPH); experiment: Bioassay 6: brown planthopper, sprayed rice seedlings; format: in vivo; details: AI alone, AI Rate 0.049 g/ha, 6 days
Description: At these rates, F1 and the individual active ingredients were tested at a ratio of 1:1. […] F1 and triflumezopyrim were tested at a ratio of 16:1. Test solutions were prepared containing F1, the individual active ingredients, and mixtures of F1 with each of the active ingredients. Test solutions were prepared by weighing 5 mg of each test chemistry (either alone or in combination depending on the treatment) into a 25 mL glass vial. Next, 1 mL of acetone was added to each vial to dissolve the test chemistries, followed by 19 mL of water with 0.125% Tween 20 adjuvant. This test solution represented the 50 g/ha treatment, which was then serially diluted four-fold to create the three lower rates of 12.5, 3.125, and 0.78 g/ha. Triflumezopyrim was prepared in a similar manner, but two additional serial dilutions were conducted to create solutions representing 6 rates of 12.5, 3.125, 0.78, 0.19, 0.049, and 0.012 g/ha. The higher two doses were discarded, and the four lower doses were used for testing. Each rate was replicated four times, and solvent blanks were used as control treatments.
Five (5) rice seedlings (10-12 days old) planted in 3-inch pots were used as test plants. Rice seedlings were grown in soil and the soil was covered with a 2% agar solution. The test solutions were applied to test plants using a Devries laboratory research sprayer, set to spray at 200 liters per hectare (L/ha) using a TeeJet hollow cone nozzle. Following application, the rice seedlings were dried for 1 hour, after which a single clear plastic tube (2 inches in diameter×12 inches in height) was placed over the seedlings in each pot. The tube was pushed down into the agar to create a sealed test chamber. The agar prevented insects from hiding in the soil and made adult collection and grading easier. Ten to fifteen (10-15) 5th instar BPH nymphs were transferred to each test chamber using a vacuum aspirator. Immediately following BPH infestation, the test chamber was covered with a piece of grade 90 cheesecloth and secured with a rubber band, sealing the test chamber. The test chambers were held at 25° C. for 6 days, after which the total number of live insects was counted in each test chamber. Percent control was measured using Abbott's correction formula (W. S. Abbott, J. Econ. Entomol. 18 (1925), pp. 265-267) as follows:
where X=No. of live insects on solvent check and Y=No. of live insects in treated chambers. In Table B6 the “Expected % Control” was calculated using the method described in Colby S. R., Weeds, 1967, 15, 20-22. Bioassay 7: Corn Earworm (Helicoverpa zea, HELIZE, “CEW”), Fall Armyworm (Spodoptera frugiperda, LAPHFR, “FAW”), Beet Armyworm (Spodoptera exigua, LAPHEG, “BAW”),and Soybean Looper (Chrysodeixis includens, PSEPIN, “SBL”).

[2] = system: Neotropical Brown Stink Bug (Euschistus heros, EUSCHE, BSB); experiment: Bioassay 5: neotropical brown stink bug, artificial agar diet; format: in vivo
Description: Stock solutions were prepared with F1 as well as for each of the active ingredients individually. Test solutions were prepared from the stock solutions. Test solutions were prepared containing F1, the individual active ingredients, and mixtures of F1 with each of the active ingredients. The test solution for F1 and the individual active ingredients were prepared by adding 30 μL of the stock solution to a single well of a 96 well plate, then adding 30 μL of DMSO, followed by the addition of 140 μL of a 2:1 mixture of acetone:water as a diluent to create a 0.03% (w/v) solution. […]
The test solutions were tested against BSB using the following procedure: an artificial agar diet (2% agar, 12% sucrose) was distributed in 48 well plastic plates (Fisher Scientific™). […] The total number of living BSB nymphs was recorded four days after application. […] Percent control was measured using Abbott's correction formula (W. S. Abbott, J. Econ. Entomol. 18 (1925), pp. 265-267) as follows:
where X=No. of live nymphs on solvent check and Y=No. of live nymphs on treated bean segments. In Table B5 the “Expected % Control” was calculated using the method described in Colby S. R., Weeds, 1967, 15, 20-22. […]

| Compound | Average % Control AI [1] | other results |
| --- | --- | --- |
| CON=CNC(=O)c1ccc(C2=NOC(c3cc(Cl)cc(Cl)c3)(C(F)(F)F)C2)cc1C (centres unmarked) [Fluxametamide] | 42.3% |  |
| Cc1ccc(COCC(F)(F)F)c(N2C(=O)CS/C2=N\C(=O)Nc2ccc(-c3ncn(-c4ccc(OC(F)(F)F)cc4)n3)cc2F)c1 [F1] |  | Average % Control F1 ([2]; F1 alone, Wt % F1 0.0045, EUSCHE nymphs, agar diet, four days after application): 7.1% |
| Cc1c(COC(=O)[C@@H]2[C@H](/C=C(\Cl)C(F)(F)F)C2(C)C)cccc1-c1ccccc1 (racemic) [Bifenthrin] |  | Average % Control AI ([2]; AI alone, Wt % AI 0.0045, EUSCHE, four days): 60.0% |
| COC(=O)N(C(=O)N1CO[C@@]2(C(=O)OC)Cc3cc(Cl)ccc3C2=N1)c1ccc(OC(F)(F)F)cc1 [Indoxacarb] | 1.2% |  |
| C[C@]1(COC(=O)C2CC2)[C@@H]2C[C@H](O)[C@@]3(C)Oc4cc(-c5cccnc5)oc(=O)c4[C@H](O)[C@@H]3[C@@]2(C)CC[C@@H]1OC(=O)C1CC1 [Afidopyropen] | 11.4% |  |
